Patent US20220298135A1, “5-HETEROARYL-PYRIDIN-2-AMINE COMPOUNDS AS NEUROPEPTIDE FF RECEPTOR ANTAGONISTS” (Domain Therapeutics, priority 2019, published 2022)

Assays:
[1] = biological target: T1, human NPFFR1 (hNPFFR1) receptor (Homo sapiens, UniProt Q9GZQ6); assay: Human NPFFR1 evaluation using BRET biosensors (antagonist IC50); type: cell-based; details: hNPFFR1 transiently over-expressed in HEK-293 T cells; BRET signal; stimulation by EC80 RFRP-3
T1 construct: expressed in transfected cells; host or cells: HEK-293 T cells, transient co-transfection with polyethylenimine
T1 sequence (Q9GZQ6 whole entry): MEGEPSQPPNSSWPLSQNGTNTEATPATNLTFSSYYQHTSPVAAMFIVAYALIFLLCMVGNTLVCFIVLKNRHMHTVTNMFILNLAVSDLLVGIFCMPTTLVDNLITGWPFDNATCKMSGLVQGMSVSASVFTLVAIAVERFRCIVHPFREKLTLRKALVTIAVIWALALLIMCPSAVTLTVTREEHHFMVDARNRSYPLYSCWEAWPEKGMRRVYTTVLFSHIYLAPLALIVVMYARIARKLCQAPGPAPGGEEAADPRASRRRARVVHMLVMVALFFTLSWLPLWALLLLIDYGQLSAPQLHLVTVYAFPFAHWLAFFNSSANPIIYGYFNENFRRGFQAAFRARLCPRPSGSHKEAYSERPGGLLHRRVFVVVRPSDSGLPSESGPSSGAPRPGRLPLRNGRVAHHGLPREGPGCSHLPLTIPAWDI
Experimental: Compounds of the present invention were tested successively for their agonist and antagonist activities on human NPFFR1 (hNPFFR1) receptor transiently over-expressed in HEK-293 T cells. Compounds exert agonist activity if, by themselves in absence of neuropeptide RFRP-3 (also named NPVF) they activate hNPFFR1; and they exert antagonist activity if they decrease the action of RFRP-3 on the receptor.
The assay used to measure compound activity is based on BRET (Bioluminescence Resonance Energy Transfer) biosensors and is designed to monitor the plasma membrane translocation of protein that interacts with specific Ga subunit. The specific effector (luciferase tagged: BRET donor) recruited at the membrane will be in close proximity to a plasma membrane anchor (GFP tagged: BRET acceptor) to induce a BRET signal. Biosensors are described in the patent application WO 2016/041093 A1 (Biosensors for monitoring biomolecule localization and trafficking in cells).
HEK-293 T cells are maintained in Dulbecco's Modified Eagle's Medium supplemented with 10% Foetal Calf Serum, 1% Penicillin/Streptomycin at 37° C./5% CO2.
Cells are co-transfected using polyethylenimine (25 kDa linear) with four DNA plasmids encoding: hNPFFR1, GαoB, a Gi family specific intracellular effector fused to luciferase (BRET donor), a plasma membrane effector fused to GFP (BRET acceptor). After transfection, cells are cultured for 48 h at 37° C./5% CO2.
Receptor activity is detected by changes in BRET signal.
On the day of the assay, cells are detached using trypsin 0.05%, resuspended in assay buffer (1.8 mM CaCl2, 1 mM MgCl2, 2.7 mM KCl, 137 mM NaCl, 0.4 mM NaH2PO4, 5.5 mM D-Glucose, 11.9 mM NaHCO3, 25 mM Hepes) and seeded in 384 well plate at a density of 20,000 cells per well. Then, plates are equilibrated 3.5 hours at 37° C. before adding compounds.
Compounds and luciferase substrate are added to the cells using an automated device (Freedom Evo®, Tecan) and BRET readings are collected on EnVision (PerkinElmer) with specific filters (410 nm BW 80 nm, 515 nm BW 30 nm).
Agonist and antagonist activities of compounds are consecutively evaluated on the same cell plate. Agonist activity is first measured after 10 minutes incubation with compound alone on the cells. Then, cells are stimulated by an EC80 RFRP-3 concentration and luminescence is recorded for additional 10 minutes. EC80 RFRP-3 concentration is the concentration giving 80% of the maximal RFRP-3 response. Agonist or antagonist activities are evaluated in comparison to basal signals evoked by assay buffer or EC80 RFRP-3 alone, respectively.
For IC50 determination, a dose-response test is performed using 20 concentrations (ranging over 6 logs) of each compound. Dose-response curves are fitted using the sigmoidal dose-response (variable slope) analysis in GraphPad Prism software (GraphPad Software) and IC50 of antagonist activity is calculated. Dose-response experiments are performed in duplicate, in two independent experiments.

| Compound | melting point | IC50 [1] |
| --- | --- | --- |
| CCCc1nc(N)ccc1-c1cccc2ccncc12.Cl [Example 9, 5-(8-Isoquinolyl)-6-propyl-pyridin-2-amine] | 100 to 117 °C | < 100 nM |
| CCc1nc(N)ccc1-c1ccccc1-c1ccc(OC)nc1 [Example 89, 6-ethyl-5-(2-(6-methoxypyridin-3-yl)phenyl)pyridin-2-amine] | 165 to 180 °C | 100 to 1000 nM |
| Cl.Nc1ccc(-c2cccc3sccc23)c(N)n1 [Example 51, 3-(benzo[b]thiophen-4-yl)pyridine-2,6-diamine] | 100 to 120 °C | < 100 nM |
| CCc1nc(N)ccc1-c1cccc2c1OCCC2.Cl [Example 66, 5-(chroman-8-yl)-6-ethylpyridin-2-amine] | 180 to 192 °C | < 100 nM |
| Cl.Nc1ccc(-c2ccc(F)c3cccnc23)c(N)n1 [Example 55, 3-(5-fluoroquinolin-8-yl)pyridine-2,6-diamine] | 73 to 81 °C | < 100 nM |
| Cl.Nc1ccc(-c2cccc3c2OCCC3)c(N)n1 [Example 37, 3-Chroman-8-yl-pyridine-2,6-diamine] | 110 to 124 °C | < 100 nM |
| Nc1ccc(-c2coc3ccccc23)c(N)n1 [Example 20, 3-(Benzofuran-3-yl)pyridine-2,6-diamine] | 109 to 112 °C | 100 to 1000 nM |
| Cl.Nc1ccc(-c2cccc3ccncc23)c(C2CC2)n1 [Example 15, 6-Cyclopropyl-5-(8-isoquinolyl)pyridin-2-amine] | 200 to 215 °C | 100 to 1000 nM |
| CCc1nc(N)ccc1-c1cccc2ccncc12.Cl [Example 6, 6-Ethyl-5-(8-isoquinolyl)pyridin-2-amine] | > 250 °C | < 100 nM |
| CCc1nc(N)ccc1-c1ccccc1-c1ccc(N2CCCCC2)nc1.Cl [Example 80, 6-ethyl-5-(2-(6-(piperidin-1-yl)pyridin-3-yl)phenyl)pyridin-2-amine] | 50 to 80 °C | 100 to 1000 nM |
| Cl.Nc1ccc(-c2cccc3scnc23)c(N)n1 [Example 30, 3-(1,3-Benzothiazol-4-yl)pyridine-2,6-diamine] | > 250 °C | 100 to 1000 nM |
| CCc1nc(N)ccc1-c1c(F)ccc2ccc(C)nc12.Cl [Example 76, 6-ethyl-5-(7-fluoro-2-methylquinolin-8-yl)pyridin-2-amine] | 95 to 120 °C | < 100 nM |
| Cl.Nc1ccc(-c2cccc3cccnc23)c(C2CC2)n1 [Example 14, 6-Cyclopropyl-5-(8-quinolyl)pyridin-2-amine] | > 250 °C | 100 to 1000 nM |
| Cl.Nc1ccc(-c2cccc3c2sc2ccccc23)c(N)n1 [Example 39, 3-Dibenzothiophen-4-ylpyridine-2,6-diamine] | 165 to 170 °C | < 100 nM |
| Nc1ccc(-c2ccnc3ccccc23)c(N)n1 [Example 35, 3-Quinolin-4-yl-pyridine-2,6-diamine] | > 250 °C | > 1000 nM |
| CC(C)CCc1nc(N)ccc1-c1c(F)ccc2cccnc12.Cl [Example 73, 5-(7-fluoroquinolin-8-yl)-6-isopentylpyridin-2-amine] | 100 to 140 °C | < 100 nM |
| Nc1ccc(-c2cccc3cnccc23)c(N)n1 [Example 33, 3-(5-Isoquinolyl)pyridine-2,6-diamine] | > 250 °C | 100 to 1000 nM |
| Nc1ccc(-c2cncc3ccccc23)c(N)n1 [Example 36, 3-Isoquinolin-4-yl-pyridine-2,6-diamine] | 180 to 185 °C | > 1000 nM |
| Cl.Nc1ccc(-c2cccc3ccsc23)c(N)n1 [Example 29, 3-(Benzothiophen-7-yl)pyridine-2,6-diamine] | 100 to 113 °C | 100 to 1000 nM |
| Cl.Nc1ccc(-c2cccc3[nH]ccc23)c(N)n1 [Example 24, 3-(1H-Indol-4-yl)pyridine-2,6-diamine] | 150 to 154 °C | 100 to 1000 nM |
| CCc1nc(N)ccc1-c1c(F)ccc2cccnc12.Cl [Example 65, 6-ethyl-5-(7-fluoroquinolin-8-yl)pyridin-2-amine] | 150 to 195 °C | < 100 nM |
| CCc1nc(N)ccc1-c1csc2ccc(C)cc12.Cl [Example 42, 6-Ethyl-5-(5-methylbenzothiophen-3-yl)pyridin-2-amine] | 64 to 88 °C | 100 to 1000 nM |

Second part, the compound after the results:

| melting point | IC50 [1] | Compound |
| --- | --- | --- |
| 120 to 130 °C | < 100 nM | CCc1nc(N)ccc1-c1c(F)c(F)cc2cc(F)cnc12.Cl [Example 150, 6-ethyl-5-(3,6,7-trifluoroquinolin-8-yl)pyridin-2-amine] |
| 102 to 114 °C | < 100 nM | CCc1nc(N)ccc1-c1cccc2ccc(C(=O)NCc3ccccc3)nc12.Cl [Example 174, 8-(6-amino-2-ethylpyridin-3-yl)-N-benzylquinoline-2-carboxamide] |
| > 250 °C | 100 to 1000 nM | CCc1nc(N)ccc1-c1cccc2ccc(C(=O)N3CCC(c4ccccc4)CC3)nc12.Cl [Example 172, (8-(6-amino-2-ethylpyridin-3-yl)quinolin-2-yl)(4-phenylpiperidin-1-yl)methanone] |
| 160 to 172 °C | < 100 nM | CCc1nc(N)ccc1-c1cccc2cc3c(nc12)CCCC3.Cl [Example 113, 6-ethyl-5-(5,6,7,8-tetrahydroacridin-4-yl)pyridin-2-amine] |
| > 250 °C | 100 to 1000 nM | CCc1nc(N)ccc1-c1c(F)c(F)cc2ccc(O)nc12.Cl [Example 161, 8-(6-amino-2-ethylpyridin-3-yl)-6,7-difluoroquinolin-2(1H)-one] |
| 132 to 145 °C | > 1000 nM | CCc1nc(N)ccc1-c1cccc2ccc(=O)n(C)c12.Cl [Example 156, 8-(6-amino-2-ethylpyridin-3-yl)-1-methylquinolin-2(1H)-one] |
| 100 to 150 °C | < 100 nM | CCc1nc(N)ccc1-c1cccc2ccc(N3CCOCC3)nc12.Cl [Example 129, 6-ethyl-5-(2-morpholinoquinolin-8-yl)pyridin-2-amine] |
| > 250 °C | 100 to 1000 nM | CCc1nc(N)ccc1-c1cccc2c1N(C)CC2.Cl [Example 162, 6-ethyl-5-(1-methylindolin-7-yl)pyridin-2-amine] |
| 126 to 136 °C | < 100 nM | CCc1nc(N)ccc1-c1c(F)cc(F)c2cccnc12.Cl [Example 108, 5-(5,7-difluoroquinolin-8-yl)-6-ethylpyridin-2-amine] |
| 175 to 183 °C | 100 to 1000 nM | CCc1nc(N)ccc1-c1cccc2c1NCC2.Cl [Example 164, 6-ethyl-5-(indolin-7-yl)pyridin-2-amine] |
| 110 to 150 °C | < 100 nM | CCc1nc(N)ccc1-c1cccc2ccc(C)nc12.Cl [Example 90, 6-ethyl-5-(2-methylquinolin-8-yl)pyridin-2-amine] |
| 90 to 130 °C | < 100 nM | CCc1nc(N)ccc1-c1cccc2ccc(C(F)(F)F)nc12.Cl [Example 99, 6-ethyl-5-(2-(trifluoromethyl)quinolin-8-yl)pyridin-2-amine] |
| 130 to 135 °C | < 100 nM | CCc1nc(N)ccc1-c1cccc2ccc(C(=O)N3CCOCC3)nc12.Cl [Example 166, (8-(6-amino-2-ethylpyridin-3-yl)quinolin-2-yl)(morpholino)methanone] |
| 43 to 52 °C | < 100 nM | CCc1nc(N)ccc1-c1c(F)ccc2c1OCC=CC2.Cl [Example 178, 6-ethyl-5-(8-fluoro-2,5-dihydrobenzo[b]oxepin-9-yl)pyridin-2-amine] |
| 100 to 150 °C | < 100 nM | CCc1nc(N)ccc1-c1c(F)ccc2ccc(N3CCCOCC3)nc12.Cl [Example 134, 6-ethyl-5-(7-fluoro-2-(1,4-oxazepan-4-yl)quinolin-8-yl)pyridin-2-amine] |
